Experimental data taken from PubChem BioAssay (NCI).
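These data come from cells grown in 96-well plates and exposed to compound for 48 hours at five concentrations. GI50: concentration for 50% inhibition of growth. The concentration for full growth arrest is given as TGI.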

Key:
Assay in all cases: NCI anticancer screen, dose series, 48 h
[1] = test system: 786-0 renal
[2] = test system: A498 renal
[3] = test system: A549 NSCLC
[4] = test system: ACHN renal
[5] = test system: CAKI-1 renal
[6] = test system: CCRF-CEM leukemia
[7] = test system: COLO 205 colon
[8] = test system: DLD-1 colon
[9] = test system: DMS 114 small cell lung
[10] = test system: DMS 273 small cell lung
[11] = test system: EKVX NSCLC
[12] = test system: HCC-2998 colon
[13] = test system: HCT-116 colon
[14] = test system: HCT-15 colon
[15] = test system: HL-60(TB) leukemia
[16] = test system: HOP-62 NSCLC
[17] = test system: HOP-92 NSCLC
[18] = test system: HT29 colon
[19] = test system: IGROV1 ovarian
[20] = test system: K-562 leukemia
[21] = test system: KM12 colon
[22] = test system: KM20L2 colon
[23] = test system: LOX IMVI melanoma
[24] = test system: LXFL 529 NSCLC
[25] = test system: M14 melanoma
[26] = test system: M19-MEL melanoma
[27] = test system: MALME-3M melanoma
[28] = test system: MOLT-4 leukemia
[29] = test system: NCI-H226 lung
[30] = test system: NCI-H23 lung
[31] = test system: NCI-H460 lung
[32] = test system: NCI-H522 lung
[33] = test system: OVCAR-3 ovarian
[34] = test system: OVCAR-4 ovarian
[35] = test system: OVCAR-5 ovarian
[36] = test system: OVCAR-8 ovarian
[37] = test system: RPMI-8226 leukemia
[38] = test system: RXF 393 renal
[39] = test system: RXF-631 renal
[40] = test system: SF-268 CNS
[41] = test system: SF-295 CNS
[42] = test system: SF-539 CNS
[43] = test system: SK-MEL-2 melanoma
[44] = test system: SK-MEL-28 melanoma
[45] = test system: SK-MEL-5 melanoma
[46] = test system: SK-OV-3 ovarian
[47] = test system: SN12C renal
[48] = test system: SNB-19 CNS
[49] = test system: SNB-75 CNS
[50] = test system: SNB-78 CNS
[51] = test system: SR leukemia
[52] = test system: SW-620 colon
[53] = test system: TK-10 renal
[54] = test system: U251 CNS
[55] = test system: UACC-257 melanoma
[56] = test system: UACC-62 melanoma
[57] = test system: UO-31 renal
[58] = test system: XF 498 CNS

CCC[CH2][Sn]1([CH2]CCC)[O]CC(CN2CCOCC2)[O]1 (stereo not given)
GI50 [1]: 2.63 µM | TGI [1]: 7.39 µM | GI50 [2]: 5.5 µM | TGI [2]: 17.2 µM | GI50 [3]: 18.3 µM | TGI [3]: 32.2 µM | GI50 [4]: 3.02 µM | TGI [4]: 9.61 µM | GI50 [5]: 1.36 µM | TGI [5]: 6.51 µM | GI50 [6]: 0.995 µM | TGI [6]: 4.84 µM | GI50 [7]: 3.58 µM | TGI [7]: 9.59 µM | GI50 [8]: 4.46 µM | TGI [8]: 16.8 µM | GI50 [9]: 1.36 µM | TGI [9]: 4.35 µM | GI50 [10]: 3.15 µM | TGI [10]: 12 µM | GI50 [11]: 2.18 µM | TGI [11]: 11.9 µM | GI50 [12]: 8.82 µM | TGI [12]: 21.6 µM | GI50 [13]: 8.84 µM | TGI [13]: 21 µM | GI50 [14]: 6.4 µM | TGI [14]: 18.6 µM | GI50 [15]: 1.17 µM | TGI [15]: 3.62 µM | GI50 [16]: 8.8 µM | TGI [16]: 20.4 µM | GI50 [17]: 3.7 µM | TGI [17]: 14 µM | GI50 [18]: 9.65 µM | TGI [18]: 23.6 µM | GI50 [19]: 12.1 µM | TGI [19]: 26.1 µM | GI50 [20]: 2.43 µM | TGI [20]: 9.16 µM | GI50 [21]: 10.4 µM | TGI [21]: 22.5 µM | GI50 [22]: 5.35 µM | TGI [22]: 19.1 µM | GI50 [23]: 2.02 µM | TGI [23]: 5.7 µM | GI50 [24]: 1.11 µM | TGI [24]: 2.47 µM | GI50 [25]: 2.86 µM | TGI [25]: 10.3 µM | GI50 [26]: 3.99 µM | TGI [26]: 17.3 µM | GI50 [27]: 1.62 µM | TGI [27]: 5.64 µM | GI50 [28]: 2.22 µM | TGI [28]: 7.88 µM | GI50 [29]: 20.2 µM | TGI [29]: 34.8 µM | GI50 [30]: 2.41 µM | TGI [30]: 6.13 µM | GI50 [31]: 13.6 µM | TGI [31]: 26.5 µM | GI50 [32]: 1.12 µM | TGI [32]: 2.55 µM | GI50 [33]: 2.13 µM | TGI [33]: 8.23 µM | GI50 [34]: 11.2 µM | TGI [34]: 23.4 µM | GI50 [35]: 18.8 µM | TGI [35]: 32.8 µM | GI50 [36]: 3.35 µM | TGI [36]: 10.8 µM | GI50 [37]: 1.44 µM | TGI [37]: 4.7 µM | GI50 [38]: 1.65 µM | TGI [38]: 3.31 µM | GI50 [39]: 1.41 µM | TGI [39]: 2.71 µM | GI50 [40]: 1.79 µM | TGI [40]: 5.52 µM | GI50 [41]: 2.46 µM | TGI [41]: 10.9 µM | GI50 [42]: 2.96 µM | TGI [42]: 8.59 µM | GI50 [43]: 1.53 µM | TGI [43]: 3.66 µM | GI50 [44]: 2.89 µM | TGI [44]: 11.3 µM | GI50 [45]: 5.4 µM | TGI [45]: 18.2 µM | GI50 [46]: 12.3 µM | TGI [46]: 25.8 µM | GI50 [47]: 5.02 µM | TGI [47]: 16.7 µM | GI50 [48]: 7.65 µM | TGI [48]: 19.6 µM | GI50 [49]: 2.16 µM | TGI [49]: 7.05 µM | GI50 [50]: 2.12 µM | TGI [50]: 6.36 µM | GI50 [51]: 1.56 µM | TGI [51]: 6.13 µM | GI50 [52]: 1.99 µM | TGI [52]: 5.44 µM | GI50 [53]: 4.02 µM | TGI [53]: 12.1 µM | GI50 [54]: 3.05 µM | TGI [54]: 11 µM | GI50 [55]: 4.29 µM | TGI [55]: 15.1 µM | GI50 [56]: 1.79 µM | TGI [56]: 4.55 µM | GI50 [57]: 10.1 µM | TGI [57]: 21.7 µM | GI50 [58]: 1.62 µM | TGI [58]: 3.11 µM

O=NN/C(=C1\Nc2ccc([N+](=O)[O-])cc2NC1=O)C(O)c1ccc([N+](=O)[O-])cc1 (stereo not given)
TGI [1]: > 100 µM | TGI [3]: > 100 µM | TGI [4]: > 100 µM | TGI [5]: > 100 µM | TGI [6]: > 100 µM | TGI [7]: > 100 µM | TGI [8]: > 100 µM | TGI [9]: > 100 µM | TGI [10]: > 100 µM | TGI [12]: > 100 µM | TGI [13]: > 100 µM | TGI [14]: > 100 µM | TGI [15]: > 100 µM | TGI [16]: > 100 µM | TGI [17]: > 100 µM | TGI [18]: > 100 µM | TGI [19]: > 100 µM | TGI [20]: > 100 µM | TGI [21]: > 100 µM | TGI [22]: > 100 µM | TGI [23]: > 100 µM | TGI [24]: > 100 µM | TGI [25]: > 100 µM | TGI [26]: > 100 µM | TGI [27]: > 100 µM | TGI [28]: > 100 µM | TGI [29]: > 100 µM | TGI [30]: > 100 µM | TGI [31]: > 100 µM | TGI [32]: > 100 µM | TGI [33]: > 100 µM | TGI [34]: > 100 µM | TGI [35]: > 100 µM | TGI [36]: > 100 µM | TGI [37]: > 100 µM | TGI [38]: > 100 µM | TGI [39]: > 100 µM | TGI [40]: > 100 µM | TGI [41]: > 100 µM | TGI [42]: > 100 µM | TGI [44]: > 100 µM | TGI [45]: > 100 µM | TGI [46]: > 100 µM | TGI [47]: > 100 µM | TGI [48]: > 100 µM | TGI [49]: > 100 µM | TGI [50]: > 100 µM | TGI [51]: > 100 µM | TGI [52]: > 100 µM | TGI [54]: > 100 µM | TGI [55]: > 100 µM | TGI [56]: > 100 µM | TGI [57]: > 100 µM | TGI [58]: > 100 µM
